Data taken from patent publication US12606564B2, “Adenosine receptor antagonist compounds” (ILDONG PHARMACEUTICAL CO., LTD., priority 2019, dated 2026).

Legend:
[1] = target: Human recombinant adenosine A2A receptor (Homo sapiens, UniProt P29274); test: Human adenosine A2A receptor binding assay with [3H] CGS-21680 (Example 4.2); conditions: for activity as dual antagonists of both A2A and A1 receptors (in words): summary of Table 5, binding assays of Examples 4.1 and 4.2
Description: Test compound is weighed, dissolved in DMSO to make a stock solution of 10 mM, diluted with DMSO to prepare working solutions, then 100-fold diluted to the indicated concentrations. Human recombinant adenosine A2A receptors expressed in HEK-293 cells were used to prepare membranes in incubation buffer (50 mM Tris-HCl, pH 7.4, 10 mM MgCl2, 1 mM EDTA, 2 U/ml Adenosine Deaminase). Test compound or vehicle (2.2 μL) was added in 200 μL of membranes and incubated with 20 μL of 50 nM [^3H] […] Non-specific binding was estimated in the presence of 50 μM NECA (5′-N-ethylcarboxamidoadenosine). The incubation was stopped by vacuum filtration onto 0.3% PEI (polyethylenimine) presoaked GF/B filters using a harvester followed by four washes with ice-cold 50 mM Tris-HCl, pH 7.4, and the radioactivity on GF/B filtermats counted in a scintillation counter (PerkinElmer Topcount™) to determine [^3H] […] Final concentration of vehicle DMSO is 1%.

[2] = target: T1, Human recombinant adenosine A1 receptors (Homo sapiens, UniProt P30542); test: Human adenosine A1 receptor binding assay with [3H] DPCPX (pyrazolo-pyrimidine compounds, Example 4.1); conditions: membranes of CHO-K1 cells, read-out: hA1 Ki
T1 construct: expressed in transfected cells; host or cells: CHO-K1, membrane preparation
T1 sequence (P30542 1-326): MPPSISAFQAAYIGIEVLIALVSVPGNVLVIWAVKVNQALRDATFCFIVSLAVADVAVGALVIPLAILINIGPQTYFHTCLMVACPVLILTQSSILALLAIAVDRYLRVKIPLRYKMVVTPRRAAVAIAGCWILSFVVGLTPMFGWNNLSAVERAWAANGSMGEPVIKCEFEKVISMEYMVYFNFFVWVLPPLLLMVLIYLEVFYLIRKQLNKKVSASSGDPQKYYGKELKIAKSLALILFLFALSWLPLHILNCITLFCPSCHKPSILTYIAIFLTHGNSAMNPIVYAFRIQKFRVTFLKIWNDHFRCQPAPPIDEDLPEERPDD
Description: Test compound is weighed, dissolved in DMSO to make a stock solution of 10 mM, diluted with DMSO to prepare working solutions, then 100-fold diluted to the indicated concentrations. Human recombinant adenosine A1 receptors expressed in CHO-K1 cells were used to prepare membranes in incubation buffer (20 mM HEPES (4-(2-hydroxyethyl)-1-piperazineethanesulfonic acid) pH 7.4, 10 mM MgCl2, 100 mM NaCl). Test compound or vehicle (2.2 μL) was added in 200 μL of membranes and incubated with 20 μL of 1 nM [^3H] DPCPX (8-cyclopentyl-1,3-dipropylxanthine) for 90 minutes at 25° C. Non-specific binding was estimated in the presence of 100 μM R(−)-PIA ((R)—N-(1-methyl-2-phenylethyl)adenosine). The incubation was stopped by vacuum filtration onto 0.3% PEI (polyethylenimine) presoaked GF/B filters using a harvester followed by four washes with ice-cold 50 mM Tris-HCl, pH 7.4, and the radioactivity on GF/B filtermats counted in a scintillation counter (PerkinElmer Topcount™) to determine [^3H] DPCPX specifically bound. Final concentration of vehicle DMSO is 1%.
Data is fitted using the non-linear curve fitting routines in Meth-IQ software (ID Business Solutions Ltd., UK).

Human recombinant adenosine A2A receptor, sequence (P29274 whole entry): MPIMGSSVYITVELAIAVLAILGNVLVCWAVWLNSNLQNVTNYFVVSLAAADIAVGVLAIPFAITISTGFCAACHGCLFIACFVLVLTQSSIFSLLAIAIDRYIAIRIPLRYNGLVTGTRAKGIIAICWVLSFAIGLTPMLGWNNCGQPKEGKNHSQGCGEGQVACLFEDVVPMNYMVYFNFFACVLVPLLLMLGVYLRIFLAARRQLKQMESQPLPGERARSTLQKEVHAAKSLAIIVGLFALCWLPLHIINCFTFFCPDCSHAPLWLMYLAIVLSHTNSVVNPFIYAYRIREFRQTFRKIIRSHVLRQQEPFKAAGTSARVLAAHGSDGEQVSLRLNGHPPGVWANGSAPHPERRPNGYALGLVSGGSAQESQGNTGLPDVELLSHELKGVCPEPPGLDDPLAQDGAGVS

| Structure (SMILES) | activity as dual antagonists of both A2A and A1 receptors (in words) [1] | Ki [1] [nM] | Ki [2] [nM] |
| --- | --- | --- | --- |
| N#Cc1cccc(-c2nc(N)nc3c2cnn3Cc2c(F)cc(N)cc2F)c1 [Compound 207, 3-(6-amino-1-(4-amino-2,6-difluorobenzyl)-1H-pyrazolo[3,4-d]pyrimidin-4-yl)benzonitrile] | potent activity as dual antagonists | – | – |
| N#Cc1cccc(-c2nc(N)nc3c2cnn3Cc2ccc(N)c(C(F)(F)F)c2)c1F [Compound 211, 3-(6-amino-1-(4-amino-3-(trifluoromethyl)benzyl)-1H-pyrazolo[3,4-d]pyrimidin-4-yl)-2-fluorobenzonitrile] | potent activity as dual antagonists | – | – |
| N#Cc1cccc(-c2nc(N)nc3c2cnn3Cc2c(F)cc(N)cc2F)c1F [Compound 208, 3-(6-amino-1-(4-amino-2,6-difluorobenzyl)-1H-pyrazolo[3,4-d]pyrimidin-4-yl)-2-fluorobenzonitrile] | potent activity as dual antagonists | < 20 | ≤ 100 |
| Cc1cc(Cn2ncc3c(-c4cccc(C#N)c4F)nc(N)nc32)ccc1N [Compound 206, 3-(6-amino-1-(4-amino-3-methylbenzyl)-1H-pyrazolo[3,4-d]pyrimidin-4-yl)-2-fluorobenzonitrile] | potent activity as dual antagonists | – | – |
| N#Cc1cccc(-c2nc(N)nc3c2cnn3Cc2c(F)cccc2F)c1F [Compound 213, 3-(6-amino-1-(2,6-difluorobenzyl)-1H-pyrazolo[3,4-d]pyrimidin-4-yl)-2-fluorobenzonitrile] | potent activity as dual antagonists | – | – |
